We go through 5 compounds from ChEMBL document CHEMBL3044712, “Herbicidal potential of pseudoguaninolide sesquiterpenes on wild oat, Avena fatua L” (Biochem Syst Ecol, 2012).

Structures are written as SMILES.

For test [1], the system named is Avena fatua. As to the kind of experiment: Phytotoxicity against Avena fatua assessed as inhibition of shoot growth as shoot length at 0.5 mM (reference value: 11.2 +/- 0.35%). Format: functional. Conditions: read-out: GI.
In test [2] the test system is Avena fatua. As to the kind of experiment: Phytotoxicity against Avena fatua assessed as seed germination at 0.125 mM measured after 10 days sowing (reference value: 50 +/- 2.89%). Format: functional.
In test [3] the test system is Avena fatua. Kind of test: Phytotoxicity against Avena fatua assessed as seed germination at 0.5 mM measured after 10 days sowing (reference value: 50 +/- 2.89%). The class given is functional.
For test [4], the system named is Avena fatua. Kind of test: Phytotoxicity against Avena fatua assessed as inhibition of root growth as root length at 1 mM (reference value: 9.6 +/- 0.36%). Format: functional. The note with it: read-out: GI.
Test [5] deals with Avena fatua. Kind of test: Phytotoxicity against Avena fatua assessed as inhibition of root growth as root length at 0.125 mM (reference value: 9.6 +/- 0.36%). The class given is functional. Conditions: read-out: GI.
Test [6] has as its system Avena fatua. As to the kind of experiment: Phytotoxicity against Avena fatua assessed as inhibition of root growth as root length. Format: functional, organism-based.
In test [7] the test system is Avena fatua. As to the kind of experiment: Phytotoxicity against Avena fatua assessed as inhibition of root growth as root length at 2 mM (reference value: 9.6 +/- 0.36%). The class given is functional. Conditions: read-out: GI.
Test [8] has as its system Avena fatua. As to the kind of experiment: Phytotoxicity against Avena fatua assessed as inhibition of root growth as root length at 0.5 mM (reference value: 9.6 +/- 0.36%). Format: functional. Conditions: read-out: GI.
Test [9] deals with Avena fatua. As to the kind of experiment: Phytotoxicity against Avena fatua assessed as inhibition of shoot growth as shoot length at 0.125 mM (reference value: 11.2 +/- 0.35%). Format: functional. Conditions: read-out: GI.
For test [10], the system named is Avena fatua. Kind of test: Phytotoxicity against Avena fatua assessed as seed germination at 2 mM measured after 10 days sowing (reference value: 50 +/- 2.89%). Format: functional.
Test [11] concerns Avena fatua. As to the kind of experiment: Phytotoxicity against Avena fatua assessed as inhibition of root growth as root length at 0.25 mM measured after 10 days sowing (reference value: 9.6 +/- 0.36%). The class given is functional. Conditions: 240 h, read-out: GI.
The test system of test [12] is Avena fatua. As to the kind of experiment: Phytotoxicity against Avena fatua assessed as inhibition of shoot growth as shoot length at 1 mM (reference value: 11.2 +/- 0.35%). The class given is functional. Conditions: read-out: GI.
The test system of test [13] is Avena fatua. Kind of test: Phytotoxicity against Avena fatua assessed as inhibition of shoot growth as shoot length at 0.25 mM (reference value: 11.2 +/- 0.35%). The class given is functional. Conditions: read-out: GI.
For test [14], the system named is Avena fatua. Kind of test: Phytotoxicity against Avena fatua assessed as seed germination at 1 mM measured after 10 days sowing (reference value: 50 +/- 2.89%). Format: functional.
In test [15] the test system is Avena fatua. As to the kind of experiment: Phytotoxicity against Avena fatua assessed as inhibition of shoot growth as shoot length. Format: functional, organism-based.
Test [16] has as its system Avena fatua. As to the kind of experiment: Phytotoxicity against Avena fatua assessed as inhibition of shoot growth as shoot length at 2 mM (reference value: 11.2 +/- 0.35%). Format: functional. Conditions: read-out: GI.
Test [17] deals with Avena fatua. Kind of test: Phytotoxicity against Avena fatua assessed as seed germination at 0.25 mM measured after 10 days sowing (reference value: 50 +/- 2.89%). The class given is functional.

By EC50 is commonly meant the concentration that produces a half-maximal response. Consider `C=C1C(=O)O[C@@H]2[C@H]1CC[C@H](C)[C@@H]1CCC(=O)[C@@]21C` [DAMSIN], for which the inhibition of growth at 500 µM with Avena fatua [1] turned out to be 22.3%; in the test with Avena fatua [8], 65.6%. Also, the Activity amounted to 46.7% in the test on Avena fatua [2]; 30% in the test on Avena fatua [3]; 16.7% in the test with Avena fatua [10]; 26.7% in the test with Avena fatua [14]; 35% in the test with Avena fatua [17]. Besides, the values for the inhibition of growth at 1000 µM in the test on Avena fatua [4] and in the test with Avena fatua [12] were 92.4% and 66.1%, respectively. Moreover, the inhibition of growth at 125 µM was 30.2% with Avena fatua [5] and 1.8% in the test on Avena fatua [9]. The EC50 in the test on Avena fatua [6] worked out at 240 µM; with Avena fatua [15] it was 830 µM. Also, the inhibition of growth at 2000 µM turned out to be 98.2% with Avena fatua [7] and 83.9% with Avena fatua [16]. For the same compound, the inhibition of growth at 250 µM in the test with Avena fatua [11] amounted to 55.2%; in the test with Avena fatua [13], 5.4%.
As to `C=C(C(=O)O)[C@@H]1CC[C@H](C)[C@@H]2CCC(=O)[C@@]2(C)C1` [DAMCINIC ACID], the inhibition of growth at 500 µM turned out to be 29.5% with Avena fatua [1] and 50% in the test on Avena fatua [8]. Further, the Activity turned out to be 41.7% with Avena fatua [2]; 38.3% in the test with Avena fatua [3]; 28.3% in the test on Avena fatua [10]; 38.3% in the test with Avena fatua [14]; 40% in the test with Avena fatua [17]. For the same compound, the figures for the inhibition of growth at 1000 µM with Avena fatua [4] and in the test with Avena fatua [12] were 64.6% and 44.6%, respectively. Besides, the inhibition of growth at 125 µM with Avena fatua [5] is 4.2%; with Avena fatua [9], 3.6%. Moreover, the EC50 in the test on Avena fatua [6] was determined as 600 µM; in the test with Avena fatua [15], 1090 µM. The inhibition of growth at 2000 µM with Avena fatua [7] came out at 79.2%; with Avena fatua [16], 70.5%. The figures for the inhibition of growth at 250 µM in the test on Avena fatua [11] and with Avena fatua [13] were 31.3% and 6.3%, respectively.
Consider `C=C1C(=O)O[C@@H]2[C@H]1CC[C@H](C)[C@@H]1C=CC(=O)[C@@]21C` [AMBROSIN], for which the inhibition of growth at 500 µM was 74.1% in the test on Avena fatua [1] and 85.4% in the test on Avena fatua [8]. In addition, the Activity with Avena fatua [2] was 50%; with Avena fatua [3], 28.3%; with Avena fatua [10], 26.7%; in the test with Avena fatua [14], 26.7%; in the test with Avena fatua [17], 36.7%. Further, the inhibition of growth at 1000 µM with Avena fatua [4] was 92.4%; in the test on Avena fatua [12] it was 75.9%. For the same compound, the inhibition of growth at 125 µM in the test on Avena fatua [5] came out at 22.9%; in the test on Avena fatua [9] it was 19.6%. Besides, the EC50 in the test with Avena fatua [6] worked out at 220 µM; with Avena fatua [15], 300 µM. For the same compound, the inhibition of growth at 2000 µM is 99% with Avena fatua [7] and 86.6% in the test on Avena fatua [16]. For the same compound, the inhibition of growth at 250 µM with Avena fatua [11] is 57.3%; in the test with Avena fatua [13], 51.8%.
As to `C=C1C(=O)O[C@@H]2[C@H]1CC[C@H](C)C1=CCC(=O)[C@]12C` [NEOAMBROSIN], the inhibition of growth at 500 µM was 20.5% in the test with Avena fatua [1] and 45.6% with Avena fatua [8]. For the same compound, the Activity with Avena fatua [2] is 46.7%; in the test on Avena fatua [3], 36.7%; in the test on Avena fatua [10], 23.3%; with Avena fatua [14], 40%; in the test with Avena fatua [17], 40%. Also, the results for the inhibition of growth at 1000 µM with Avena fatua [4] and with Avena fatua [12] were 61.5% and 43.8%, respectively. In addition, the inhibition of growth at 125 µM was found to be 11.5% in the test on Avena fatua [5] and 2.7% with Avena fatua [9]. The results for the EC50 in the test with Avena fatua [6] and in the test with Avena fatua [15] were 480 µM and 960 µM, respectively. Also, the inhibition of growth at 2000 µM with Avena fatua [7] was found to be 94.8%; with Avena fatua [16], 84.8%. The inhibition of growth at 250 µM with Avena fatua [11] was 40.6%; in the test with Avena fatua [13] it was 10.7%.
`C=C1C(=O)O[C@@H]2[C@H]1CC[C@H](C)[C@@]1(O)C=CC(=O)[C@@]21C` [HYMENIN]: the inhibition of growth at 500 µM in the test on Avena fatua [1] came out at 39.3%; in the test on Avena fatua [8] it was 37.5%. Besides, the Activity with Avena fatua [2] came to 38.3%; with Avena fatua [3], 33.3%; with Avena fatua [10] it was 30%; in the test with Avena fatua [14] it was 30%; with Avena fatua [17], 36.7%. The inhibition of growth at 1000 µM is 72.9% with Avena fatua [4] and 60.7% in the test with Avena fatua [12]. Further, the inhibition of growth at 125 µM with Avena fatua [5] came to 8.3%; in the test on Avena fatua [9], 10.7%. For the same compound, the EC50 in the test on Avena fatua [6] came to 570 µM; in the test on Avena fatua [15] it was 670 µM. Further, the results for the inhibition of growth at 2000 µM with Avena fatua [7] and with Avena fatua [16] were 95.6% and 80.4%, respectively. The inhibition of growth at 250 µM in the test with Avena fatua [11] turned out to be 15.6%; in the test on Avena fatua [13], 25%.
